Structures are written as SMILES. Where “and” joins values, the source holds several entries; their conditions need not be identical. Identical values can stand only once. Where a SMILES comes first, the peptide text is derived from it. Bridges are numbered along the chain shown (N, C = ends). [ ]: non-standard residue; d: D form. Orn = NCCC[C@H](N)C(=O)O; Mpa = O=C(O)CCS

Series [1] is described as follows: Indomethacin levels in uterus, placenta and fetus after IND or LIP-IND (Example 1). To be noted: four hours following administration, mean ± sem; for concentration at 4 h: female, mouse. It is filed as in vivo, pregnant mouse.
For series [2], the system named is Prostaglandin E2 (PGE2). Nature of the series: PGE2 levels in uterine tissue after administration (Example 1). It is filed as in vivo, pregnant mouse. As to conditions: four hours following administration.
Series [3] is described as follows: IND concentrations in maternal uterus and fetus by LC-MS/MS. To be noted: female, CD1, mouse, intravenous, 1 mg/kg. The class given is in vivo, pregnant CD1 mice. Here is the method:
Biodistribution study in vivo. […] The in vivo doses were maintained across the study. After 4 h, pregnant mice were sacrificed by CO2 inhalation, followed by laparotomy to retrieve maternal liver, uteri, placentas and fetuses. The onset of action of LIP-IND-ORA is unknown when administered intravenously. […] Based on these prior studies, 4 h was chosen as the period of exposure.
Uterine and fetal tissues were homogenized in 1 mL of ice-cold methanol/water (7:3 v/v). Phenacetin (final concentration 20 ng/mL) was added to each sample before centrifugation at 15,000 rpm for 10 min. Supernatant was dried under nitrogen and reconstituted in 0.1% formic acid aqueous solution followed by protein precipitation with acetonitrile (1:2). Samples were centrifuged again, supernatant was transferred to vial and 10 μL was injected to Shimadzu triple quad 8040 MS connected to LC system. […] Method parameters were: LOD=3.9 ng/mL (accuracy 76%, S/N>3); LOQ=15.6 ng/mL (accuracy 85%; CV<10%; S/N>10) with correlation coefficient for linear regression R2=0.992.

Series [4] deals with uterus isolated from pregnant mice. Nature of the series: Uterine contractility ex vivo, pregnant mouse. To be noted: absence of oxytocin, 40 min incubation, IND 10-5 mol/L, n=6, mean±SEM. The source says: (§1) Uterine contractility ex vivo. An established ex vivo pregnant mouse or human models of uterine contractility was used to measure the ability of LIP-IND-ORA to inhibit uterine contractions. For mice, on GD19, timed-pregnant animals (N=6) underwent CO2 inhalation euthanasia, the maternal uteri were excised and placed into Krebs physiological solution. In the case of human tissue, strips from uterine biopsies obtained at cesarean section from non-laboring, term, healthy women were used. Uterine ring segments, 4 mm in width, were cut, and the fetuses and placentas were gently removed. […]
(§2) Changes in isometric tension were recorded with isometric force transducers (Harvard Apparatus, South Natik, Mass.) connected and stored to an online computer with data acquisition software (WINDAQ-200; DATAQ). The data was acquired and analyzed using Windaq data acquisition system (Dataq Instruments Inc, Akron, Ohio). Spontaneous contractile activity for each uterine ring was analyzed as an integral activity over 40 min before (basal activity) and after application of each study drug. […] OXY induced contractile response was expressed as an integral activity over 20 min of each OXY dose and the baseline uterine contractility54,55,56. […] Data was expressed as mean±SEM.

The test system of series [5] is strips from uterine biopsies obtained at cesarean section. The series can be described thus: Human myometrial contractility study (organ bath). As to conditions: highest concentration of 10^−6.
Excerpt: as §1, §2

In series [6] the test system is prostaglandin E2 (PGE2). Nature of the series: PGE2 in uterine tissue incubated ex vivo, ELISA. To be noted: 40 min incubation, mean±SEM. Also on record: species or system mouse. Here is the method:
Another set of pregnant CD1 mice at GD 19 (n=5) was used to evaluate uterus PGE2 levels. […] PGE2 levels in each sample were then determined based on the instructions in the ELISA kit (ADI-901-001, Enzo Life Science, New York, USA). The concentration of PGE2 were expressed as pg/mL and reported as the mean±SEM.

In series [7] the test system is LPS-induced preterm birth. The series can be described thus: LPS-induced preterm birth in vivo. To be noted: IND 1 mg/kg daily tail vein. The arrangement: species or system pregnant CD1 mice. Here is the method: Preterm birth in vivo. The established in vivo preterm pregnant mouse model was used to test the ability of LIP-IND-ORA to prevent preterm birth. LPS is a commonly used model to induce labor in murine models. On GD 16, timed-pregnant CD1 mice were administered lipopolysaccharide (LPS, Sigma, USA) (25 μg/kg) via intraperitoneal injection. […] Since the LIP-IND-ORA solution color was visibly pink and due to limited resources to create a placebo, the randomization was not blinded. Each day after the LPS administration, the preterm birth rate was determined as the number of pregnant mice spontaneously delivering prior to GD18. Animals were housed in single cages and were monitored by either direct observation or by video camera for the duration of the treatment period to confirm timing of delivery. The rate of preterm birth was expressed as percent and length of pregnancy after LPS administration was expressed in hours. Results were reported as median±sem.

The next series relates to preterm birth. As to conditions: prior experiments, 90% in control; cited from earlier work.
A short description of series [8]: ORA levels in maternal organs by LC-MS/MS. The class given is in vivo, pregnant mice. As to conditions: after LIP-IND-ORA. From the text:
To enable faster clinical translation of the proposed approach, a clinically used^33 oxytocin receptor antagonist (ORA, or atosiban) was used as the targeting element. […] Thus, the goal of using ORA as a safe targeting moiety for pregnant women was successfully in delivering indomethacin to the uterus directly. The principles of nanomedicine have been applied to optimize tocolytics for the treatment of preterm labor, and the novel drug delivery system can provide a path for a new paradigm-shifting direction to advance the field of obstetrics.

`COc1ccc2c(c1)c(CC(=O)O)c(C)n2C(=O)c1ccc(Cl)cc1` [IND, indomethacin]: the concentration at 4 h in series [1] (fetus) was determined as 81.3 ± 24.7 ng/g; in [1] (placenta), 650 ± 78.4 ng/g; in series [1] (uterus) it was 237 ± 21.6 ng/g; in series [3] (fetus) it was 245 ± 61.7 ng/g; in series [3] (uterus), 965 ± 312 ng/g. The “Indomethacin level normalized per weight, fetus” value in series [1] is 81.3 ± 24.7 ng/g. In the series with Prostaglandin E2 (PGE2) [2], the “PGE2 levels in the uterus” value was 493.3 ± 89.0 pg/mL. Further, the “percent inhibition of uterine contractions” value in [4] was 34.3±6.6% and 34.3±5.9%. The molecule further displayed a percent uterine contractions in [5] of 67.2±8.4%. The “PGE2 levels in the uterus exposed ex vivo” value in the series on prostaglandin E2 (PGE2) [6] was 2,587.4±676.5 pg/mL. Besides, in series [7], the “length of pregnancy after LPS administration” value was found to be 30.0 ± 4.9 h. In [7] (delivery prior to GD18), the “rate of LPS-induced preterm birth” value came out at 54.5%. In addition, the “rate of preterm birth” value with preterm birth is reported as 30%.
In the case of `CCOc1ccc(C[C@H]2NC(=O)CCSSC[C@@H](C(=O)N3CCC[C@H]3C(=O)N[C@@H](CCCN)C(=O)NCC(N)=O)NC(=O)[C@H](CC(N)=O)NC(=O)[C@H]([C@@H](C)O)NC(=O)[C@H]([C@@H](C)CC)NC2=O)cc1` [ORA, atosiban] ([Mpa][dY](Et)ITNCP[Orn]G-NH2; disulfide 1-6), the “ORA levels in the maternal organs” value in series [8] is “not detectable”.
